Assay results reported in US11584754B2, “Derivatives of thailanstatin A, methods of treatment and methods of synthesis thereof” (WILLIAM MARSH RICE UNIVERSITY, priority 2016, dated 2023).

Key:
Format in all cases: cell-based, human
[1] = system: MES SA; experiment: Cytotoxicity assay (72 hour killing assay, CellTiter-Glo), MES SA; conditions: Homo sapiens, MES-SA, 72 h, read-out: Cancer cell lines IC50 (nM) MES SA
Procedure: (§1) Cells were cultured in a T75 flask to ˜50-80% confluency and harvested with trypsin into a single cell suspension. Five hundred (500) cells per well were seeded in tissue culture plates in 50 μL/well culture media and incubated at 37° C. for 18-24 h. Compounds were diluted as 400× final desired concentrations in DMSO. Serial dilutions in DMSO were then diluted in culture media for a final DMSO concentration of 0.25% and 50 μL/well of the final dilution was added to the cells (Vf=100 μL). Upon plating and treatment, cells were returned to the incubator for an additional 72 hours. CellTiter-Glo reagent was prepared per manufacturer's instructions and added at 100 μL/well to the cultures. CellTiter-Glo allows for relative enumeration of metabolically active cells by quantifying intracellular ATP concentrations. After 5 minutes of incubation with CellTiter-Glo at ambient room temperature, 125 μL/well of the Cell Titer glo/cell lysate solution was transferred into black assay plates, which were then read in a luminometer within 30 minutes.
(§2) MES SA and MES SA/Dx cells are uterine sarcoma. MES SA Dx cell line was generated from MES SA to achieve upregulation of MDR1.

[2] = system: MES SA DX; experiment: Cytotoxicity assay (72 hour killing assay, CellTiter-Glo), MES SA DX; conditions: Homo sapiens, MES-SA, 72 h, read-out: Cancer cell lines IC50 (nM) MES SA DX
Procedure: as §1, §2

[3] = system: HEK 293T; experiment: Cytotoxicity assay (72 hour killing assay, CellTiter-Glo), HEK 293T; conditions: Homo sapiens, HEK-293T, 72 h, read-out: Cancer cell lines IC50 (nM) HEK 293T
Procedure: as §1
293T cells are human embryonic kidney cell line.

| SMILES | IC50 [1] [nM] | IC50 [2] [nM] | IC50 [3] [nM] |
| --- | --- | --- | --- |
| CCOC(=O)CCNC(=O)C[C@@H]1C[C@@]2(CO2)[C@H](O)[C@@H](/C=C/C(C)=C/C[C@@H]2O[C@H](C)[C@H](NC(=O)/C=C\[C@H](C)OC(C)=O)C[C@@H]2C)O1 [Compound 35, Ethyl 3-({[(3R,5S,7R,8R)-7-{(1E,3E)-5-[(2S,3S,5R,6R)-5-{[(2Z,4S)-4-acetoxypent-2-enoyl]amino}-3,6-dimethyltetrahydro-2H-pyran-2-yl]-3-methylpenta-1,3-dien-1-yl}-8-hydroxy-1,6-dioxaspiro-[2.5]oct-5-yl]acetyl}amino)propanoatee] | 6.9 | 261 | 2.2 |
| COC(=O)C[C@@H]1C[C@@]2(CO2)[C@H](O)[C@@H](/C=C/C(C)=C/C[C@H]2O[C@H](C)[C@H](NC(=O)/C=C\[C@H](C)OC(C)=O)C=C2C)O1 [Compound 30] | > 1000 | > 1000 | > 1000 |
| COC(=O)C[C@@H]1C[C@@]2(CO2)[C@H](O)[C@@H](/C=C/C(C)=C/C[C@@H]2O[C@H](C)[C@H](NC(=O)/C=C\[C@H](C)OC(C)=O)C[C@H]2C)O1 [Compound 34, Methyl [(3R,5S,7R,8R)-7-{(1E,3E)-5-[(2S,3R,5R,6R)-5-{[(2Z,4S)-4-acetoxypent-2-enoyl]amino}-3,6-dimethyltetrahydro-2H-pyran-2-yl]-3-methylpenta-1,3-dien-1-yl}-8-hydroxy-1,6-dioxaspiro[2.5]-oct-5-yl]acetate] | 649 | > 1000 | > 1000 |
| COC(=O)C[C@@H]1C[C@@]2(CO2)[C@H](OC(C)=O)[C@@H](/C=C/C(C)=C/C[C@@H]2O[C@H](C)[C@H](NC(=O)/C=C\[C@H](C)OC(C)=O)C[C@@H]2C)O1 [Compound 45, Methyl [(3R,5S,7R,8R)-8-acetoxy-7-{(1E,3E)-5-[(2S,3S,5R,6R)-5-{[(2Z,4S)-4-acetoxypent-2-enoyl]-amino}-3,6-dimethyltetrahydro-2H-pyran-2-yl]-3-methylpenta-1,3-dien-1-yl}-1,6-dioxaspiro[2.5]-oct-5-yl]acetate] | 6.82 | 6.73 | 0.58 |
| COC(=O)C[C@@H]1C[C@@]2(CO2)[C@H](O)[C@@H](/C=C/C(C)=C\C[C@@H]2O[C@H](C)[C@H](NC(=O)/C=C\[C@H](C)OC(C)=O)C=C2C)O1 [Compound 46] | > 1000 | > 1000 | > 1000 |
| CC(=O)O[C@@H](C)/C=C\C(=O)N[C@@H]1C[C@H](C)[C@H](C/C=C(C)/C=C/[C@H]2O[C@H](CC(=O)NC3CC3)C[C@@]3(CO3)[C@@H]2O)O[C@@H]1C [Compound 31, (2S,3Z)-5-({(2R,3R,5S,6S)-6-[(2E,4E)-5-{(3R,4R,5R,7S)-7-[2-(Cyclopropylamino)-2-oxoethyl]-4-hydroxy-1,6-dioxaspiro[2.5]oct-5-yl}-3-methylpenta-2,4-dien-1-yl]-2,5-dimethyltetrahydro-2H-pyran-3-yl}amino)-5-oxopent-3-en-2-yl acetate] | 1.04 | 105 | 0.739 |
| COC(=O)C[C@@H]1CC2(CC2)[C@H](O)[C@@H](/C=C/C(C)=C/C[C@@H]2O[C@H](C)[C@H](NC(=O)/C=C\[C@H](C)OC(C)=O)C[C@@H]2C)O1 [Compound 43, Methyl [(5S,7R,8S)-7-{(1E,3E)-5-[(2S,3S,5R,6R)-5-{[(2Z,4S)-4-acetoxypent-2-enoyl]amino}-3,6-di-methyltetrahydro-2H-pyran-2-yl]-3-methylpenta-1,3-dien-1-yl}-8-hydroxy-6-oxaspiro[2.5]oct-5-yl]-acetate] | > 2500 | > 2500 | 88.3 |
| COC(=O)C[C@@H]1C[C@@]2(CO2)[C@H](O)[C@@H](/C=C/C(C)=C/C[C@@H]2O[C@H](C)[C@H](NC(=O)/C=C\[C@H](C)OC(=O)N3CCOCC3)C[C@@H]2C)O1 [Compound 44] | 2.66 | 3.71 | 0.15 |
| COC(=O)C[C@@H]1C[C@@]2(CO2)[C@H](O)[C@@H](/C=C/C(C)=C/C[C@@H]2O[C@H](C)[C@H](NC(=O)/C=C\[C@H](C)OC(C)=O)C[C@@H]2C)O1 [Compound 2, Thailanstatin A methyl ester] | 0.32 | 3.6 | 0.36 |
